Holding throughout (type): biochemical
The target in test [1] is T1, KDM4C (JMJD2C) (Homo sapiens, UniProt Q9H3R0).
T1 construct: KDM4C; BRIC, Denmark; 1-349; E. coli; host or cells: E. coli
T1 sequence (Q9H3R0 1-349): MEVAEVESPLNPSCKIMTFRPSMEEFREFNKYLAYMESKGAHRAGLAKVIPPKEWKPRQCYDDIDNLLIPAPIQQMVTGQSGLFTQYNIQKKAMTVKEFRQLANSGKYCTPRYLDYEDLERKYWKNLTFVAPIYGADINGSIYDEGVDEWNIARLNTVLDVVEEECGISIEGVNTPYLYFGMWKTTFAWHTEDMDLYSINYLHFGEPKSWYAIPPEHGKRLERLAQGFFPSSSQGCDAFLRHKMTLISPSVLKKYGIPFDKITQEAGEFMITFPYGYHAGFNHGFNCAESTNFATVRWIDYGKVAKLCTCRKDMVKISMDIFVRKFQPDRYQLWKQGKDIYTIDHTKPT
Put plainly: Histone lysine demethylase AlphaLISA assay, KDM4C. The method in brief:
(§1)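 AlphaLISA demethylase assay: enzyme in buffer of 50 mM Hepes (pH 7.4-8.0), 0.003-0.01% Tween-20, 0.1% BSA, 5 μM (NH4)2Fe(SO4)2 preincubated 10 min with compound before substrate addition at room temperature. Product detected with acceptor beads then streptavidin donor beads, read after dark incubation.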
In general terms: In Alpha technology, singlet oxygen from a donor bead excites a nearby acceptor bead.

Test [2] addresses T2, KDM2B (FBXL10) (Homo sapiens, UniProt Q8NHM5).
T2 construct: KDM2B; BPS,; 1-650; Bac; purchased BPS Bioscience, US; host or cells: baculovirus system
T2 sequence (Q8NHM5 1-650): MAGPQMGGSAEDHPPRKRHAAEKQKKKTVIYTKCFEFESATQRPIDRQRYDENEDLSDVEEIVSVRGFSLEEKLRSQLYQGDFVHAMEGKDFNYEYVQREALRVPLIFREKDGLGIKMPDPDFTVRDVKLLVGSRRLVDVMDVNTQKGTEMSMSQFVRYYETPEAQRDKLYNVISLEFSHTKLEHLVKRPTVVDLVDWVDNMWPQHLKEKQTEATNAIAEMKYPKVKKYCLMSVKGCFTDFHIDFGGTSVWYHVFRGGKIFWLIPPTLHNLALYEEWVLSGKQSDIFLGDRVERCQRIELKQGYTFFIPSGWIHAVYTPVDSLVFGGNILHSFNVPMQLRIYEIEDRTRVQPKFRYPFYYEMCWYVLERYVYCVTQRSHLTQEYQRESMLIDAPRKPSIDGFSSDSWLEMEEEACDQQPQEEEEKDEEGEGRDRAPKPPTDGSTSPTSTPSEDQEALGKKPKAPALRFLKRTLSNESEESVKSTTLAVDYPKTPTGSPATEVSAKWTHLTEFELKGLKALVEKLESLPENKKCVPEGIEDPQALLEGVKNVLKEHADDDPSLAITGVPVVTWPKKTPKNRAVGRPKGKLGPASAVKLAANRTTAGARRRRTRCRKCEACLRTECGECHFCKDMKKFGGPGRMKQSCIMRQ
Put plainly: Histone lysine demethylase AlphaLISA assay, KDM2B. An outline of the steps:
as §1

The target of test [3] is T3, PHF8 (KDM7) (Homo sapiens, UniProt Q9UPP1).
T3 construct: KDM7 (PHF8); BRIC; 1-1322; Bac
T3 sequence (Q9UPP1 37-440 limits assumed): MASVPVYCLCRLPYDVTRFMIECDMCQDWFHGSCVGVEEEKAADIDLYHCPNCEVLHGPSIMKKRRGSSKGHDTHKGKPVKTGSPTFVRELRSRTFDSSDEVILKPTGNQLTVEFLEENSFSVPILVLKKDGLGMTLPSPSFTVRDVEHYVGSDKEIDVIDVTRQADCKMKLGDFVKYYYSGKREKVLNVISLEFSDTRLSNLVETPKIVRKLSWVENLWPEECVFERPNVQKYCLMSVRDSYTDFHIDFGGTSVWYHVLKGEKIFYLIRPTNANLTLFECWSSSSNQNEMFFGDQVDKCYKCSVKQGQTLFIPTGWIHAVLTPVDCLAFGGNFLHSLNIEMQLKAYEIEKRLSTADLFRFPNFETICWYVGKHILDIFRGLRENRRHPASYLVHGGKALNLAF
In words: Histone lysine demethylase AlphaLISA assay, PHF8. An outline of the steps:
as §1

Test [4] has as its target T4, KDM6A (UTX) (Homo sapiens, UniProt O15550).
T4 construct: KDM6A (UTX); BRIC; 919-1401; E. coli; host or cells: E. coli
In words: Histone lysine demethylase AlphaLISA assay, KDM6A. As to the method:
The compounds of the application, or a pharmaceutically acceptable salt, or solvate, or prodrug thereof, are tested in an in vitro AlphaLISA assay. Enzymes are dissolved in enzyme buffer and incubated before they are added to DMSO solutions of compounds of the application, or a pharmaceutically acceptable salt, or solvate, or prodrug thereof, in enzyme buffer. The reaction mixture is then incubated for an additional period of time before substrate solution is added and then the resulting mixture again incubated. Acceptor beads and suspended Epigenetic Buffer from stock are added and the suspension is again incubated before a suspension of streptavidin donor beads in Epigenetic Buffer is added. After an additional period of incubation, the plates are read.
The ability of compounds of the application to inhibit the histone lysine demethylase activity in vitro of different enzymes was determined.
The reaction mixture was incubated for another 10 minutes before 5 μL of substrate solution was added and the resulting mixture was then incubated at room temperature. […] After incubation at room temperature in the dark, the plates were read.
Enzyme Buffer: 50 mM Hepes (pH 7.4-8.0), 0.003-0.01% Tween-20, 0.1% BSA; 5 μM (NH4)2Fe(SO4)2.

Test [5] concerns the target T5, KDM5B (PLU-1) (Homo sapiens, UniProt Q9UGL1).
T5 construct: BRIC; 1-809; E. coli; host or cells: E. coli
T5 sequence (Q9UGL1 1-809): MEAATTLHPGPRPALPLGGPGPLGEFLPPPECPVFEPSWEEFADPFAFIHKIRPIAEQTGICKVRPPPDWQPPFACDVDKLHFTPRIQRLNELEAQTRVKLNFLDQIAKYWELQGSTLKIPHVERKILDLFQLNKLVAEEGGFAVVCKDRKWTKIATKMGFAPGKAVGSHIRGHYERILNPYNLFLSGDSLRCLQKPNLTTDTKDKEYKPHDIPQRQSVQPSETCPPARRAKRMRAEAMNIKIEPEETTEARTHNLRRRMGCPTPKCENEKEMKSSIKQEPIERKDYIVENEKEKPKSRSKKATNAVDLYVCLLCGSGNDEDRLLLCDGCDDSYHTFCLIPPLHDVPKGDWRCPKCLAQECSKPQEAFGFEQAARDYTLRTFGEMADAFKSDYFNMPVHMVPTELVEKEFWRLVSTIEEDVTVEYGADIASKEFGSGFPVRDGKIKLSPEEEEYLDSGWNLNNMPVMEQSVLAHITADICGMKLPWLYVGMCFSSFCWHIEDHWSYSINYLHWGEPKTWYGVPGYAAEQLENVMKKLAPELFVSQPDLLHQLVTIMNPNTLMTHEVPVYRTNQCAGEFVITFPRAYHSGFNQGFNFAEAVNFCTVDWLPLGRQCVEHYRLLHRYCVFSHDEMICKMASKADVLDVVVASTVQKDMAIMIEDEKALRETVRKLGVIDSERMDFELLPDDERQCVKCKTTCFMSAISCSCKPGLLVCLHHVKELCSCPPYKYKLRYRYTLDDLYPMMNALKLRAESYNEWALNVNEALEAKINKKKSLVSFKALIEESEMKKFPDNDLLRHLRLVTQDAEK
Put plainly: Histone lysine demethylase AlphaLISA assay, KDM5B. The method in brief: as §1

Where [6] appears, read: AlphaLISA assay, read-out: HDME Inhibition KDM4C (IC50).
[7] abbreviates: AlphaLISA, in vitro, read-out: HDME Inhibition KDM4C.
The mark [8] stands for this setting: AlphaLISA, in vitro, read-out: HDME Inhibition KDM2B.
Setting [9] is: AlphaLISA, in vitro, read-out: HDME Inhibition PHF8.
The mark [10] stands for this setting: AlphaLISA assay, read-out: HDME Inhibition KDM6A (IC50).
Where [11] appears, read: AlphaLISA, in vitro, read-out: HDME Inhibition KDM6A.
The mark [12] stands for this setting: AlphaLISA assay, read-out: HDME Inhibition KDM5B (IC50).
Where [13] appears, read: AlphaLISA, in vitro, read-out: HDME Inhibition KDM5B.
The mark [14] stands for this setting: AlphaLISA assay, read-out: HDME Inhibition KDM2B (IC50).
[15] abbreviates: AlphaLISA assay, read-out: HDME Inhibition PHF8 (IC50).

Experimental findings from patent US9802941B2, “Compounds and methods for inhibiting histone demethylases” (Gilead Sciences, Inc., priority 2014, dated 2017) are described below.

Molecules are shown by their SMILES. Like-named read-outs stand apart in the source and are kept apart here. A value given as a limit tells only on which side of the number the result lay.

T4 sequence (O15550 919-1401): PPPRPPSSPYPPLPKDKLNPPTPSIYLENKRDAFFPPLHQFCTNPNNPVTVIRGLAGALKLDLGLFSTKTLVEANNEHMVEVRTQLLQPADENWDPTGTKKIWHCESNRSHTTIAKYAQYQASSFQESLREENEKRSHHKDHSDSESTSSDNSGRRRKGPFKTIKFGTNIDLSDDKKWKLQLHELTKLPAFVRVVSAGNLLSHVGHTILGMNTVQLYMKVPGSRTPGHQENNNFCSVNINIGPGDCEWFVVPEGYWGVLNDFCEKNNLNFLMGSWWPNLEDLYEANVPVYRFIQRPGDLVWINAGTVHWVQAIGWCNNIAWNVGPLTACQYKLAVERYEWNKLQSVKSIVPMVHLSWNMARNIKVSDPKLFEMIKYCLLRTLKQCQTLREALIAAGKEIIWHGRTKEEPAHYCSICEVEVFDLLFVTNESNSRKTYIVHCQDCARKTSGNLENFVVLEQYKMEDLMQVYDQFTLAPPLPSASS

With `Cc1cc(C(=O)O)cc(CNCc2nccn2Cc2ccc(F)cc2)n1` [Compound 1, 2-{[({1-[(4-fluorophenyl)methyl]-1H-imidazol-2-yl}methyl)amino]methyl}-6-methylpyridine-4-carboxylic acid], the IC50 is > 10 µM in test [1] (setting [6]); > 10 µM in test [1] (setting [7]); 431 nM in test [2] (setting [8]); 0.352 µM in test [3] (setting [9]); > 10 µM in test [4] (setting [10]); > 10 µM in test [4] (setting [11]). In addition, the IC50 in test [5] (setting [12]) and in test [5] (setting [13]) was > 10 µM in each case.
For the compound `Cc1cc(C(=O)O)cc(CN[C@H](CO)CC(C)C)n1` [Compound 23, 2-({[(2S)-1-hydroxy-4-methylpentan-2-yl]amino}methyl)-6-methylpyridine-4-carboxylic acid], the IC50 was > 10 µM in test [1] (setting [6]); > 10 µM in test [1] (setting [7]); > 10000 nM in test [2] (setting [14]); > 10000 nM in test [2] (setting [8]); > 10 µM in test [3] (setting [15]); > 10 µM in test [3] (setting [9]). Moreover, the IC50 in test [4] (setting [10]), in test [4] (setting [11]), in test [5] (setting [12]) and in test [5] (setting [13]) was > 10 µM each time.
`Cc1cc(C(=O)O)cc(CNC2CCCc3cccnc32)n1` (stereo not shown) [Compound 19, 2-methyl-6-{[(5,6,7,8-tetrahydroquinolin-8-yl)amino]methyl}pyridine-4-carboxylic acid]: the IC50 is > 10 µM in test [1] (setting [6]); > 10 µM in test [1] (setting [7]); 1150 nM in test [2] (setting [8]); 0.89 µM in test [3] (setting [9]); > 10 µM in test [4] (setting [10]); > 10 µM in test [4] (setting [11]). Also, the IC50 in test [5] (setting [13]) was 0.348 µM.
For the compound `COc1ccc(CCn2ccnc2CNCc2cc(C(=O)O)cc(C)n2)cc1` [Compound 17, 2-{[({1-[2-(4-methoxyphenyl)ethyl]-1H-imidazol-2-yl}methyl)amino]methyl}-6-methylpyridine-4-carboxylic acid], the IC50 in test [1] (setting [6]) was > 10 µM; in test [1] (setting [7]), > 10 µM; in test [2] (setting [14]), > 10000 nM; in test [2] (setting [8]), > 10000 nM; in test [3] (setting [15]), > 10 µM; in test [3] (setting [9]), > 10 µM. Further, the IC50 in test [4] (setting [10]), in test [4] (setting [11]), in test [5] (setting [12]) and in test [5] (setting [13]) was > 10 µM each time.
For `Cc1cc(C(=O)O)cc(CNCc2nnc(Cc3cccs3)n2Cc2ccc(F)cc2)n1` [Compound 40, 2-{[({4-[(4-fluorophenyl)methyl]-5-(thiophen-2-ylmethyl)-4H-1,2,4-triazol-3-yl}methyl)amino]methyl}-6-methylpyridine-4-carboxylic acid], the IC50 in test [1] (setting [6]) is > 10 µM; in test [1] (setting [7]) it was > 10 µM; in test [2] (setting [8]), 599 nM; in test [3] (setting [9]), 1.53 µM; in test [4] (setting [10]), > 10 µM; in test [4] (setting [11]), > 10 µM. Besides, the IC50 in test [5] (setting [12]) and in test [5] (setting [13]) was > 10 µM in each case.
With `Cc1cc(C(=O)O)cc(CNCc2nnc(C3CC3)n2Cc2ccc(F)cc2)n1` [Compound 38, 2-{[({5-cyclopropyl-4-[(4-fluorophenyl)methyl]-4H-1,2,4-triazol-3-yl}methyl)amino]methyl}-6-methylpyridine-4-carboxylic acid], the IC50 is > 10 µM in test [1] (setting [6]); > 10 µM in test [1] (setting [7]); 2290 nM in test [2] (setting [8]); > 10 µM in test [3] (setting [15]); > 10 µM in test [3] (setting [9]); > 10 µM in test [4] (setting [10]). Also, the results for the IC50 in test [4] (setting [11]) and in test [5] were > 10 µM and 4.62 µM, respectively.
As to `CCCCCCc1cccnc1CCNCc1cc(C(=O)O)cc(C)n1` [Compound 14, 2-({[2-(3-hexylpyridin-2-yl)ethyl]amino}methyl)-6-methylpyridine-4-carboxylic acid], the IC50 in test [1] (setting [6]) was > 10 µM; in test [1] (setting [7]), > 10 µM; in test [2] (setting [8]) it was 3230 nM; in test [3] (setting [9]), 5.6 µM; in test [4] (setting [10]), > 10 µM; in test [4] (setting [11]), > 10 µM. In addition, the IC50 in test [5] (setting [12]) and in test [5] (setting [13]) was > 10 µM throughout.
`COCc1cc(C(=O)O)cc(CNCc2nccn2Cc2ccc(F)cc2)n1` [Compound 2, 2-{[({1-[(4-fluorophenyl)methyl]-1H-imidazol-2-yl}methyl)amino]methyl}-6-(methoxymethyl)pyridine-4-carboxylic acid]: the IC50 in test [1] (setting [6]) is > 10 µM; in test [1] (setting [7]), > 10 µM; in test [2] (setting [8]), 2940 nM; in test [3] (setting [15]), > 10 µM; in test [3] (setting [9]) it was > 10 µM; in test [4] (setting [10]), > 10 µM. Besides, the IC50 in test [4] (setting [11]), in test [5] (setting [12]) and in test [5] (setting [13]) was > 10 µM each time.
For the compound `CC(=O)c1ccc(Cn2ccnc2CNCc2cc(C(=O)O)cc(C)n2)cc1` [Compound 24, 2-{[({1-[(4-acetylphenyl)methyl]-1H-imidazol-2-yl}methyl)amino]methyl}-6-methylpyridine-4-carboxylic acid], the IC50 in test [1] (setting [6]) is > 10 µM; in test [1] (setting [7]), > 10 µM; in test [2] (setting [8]) it was 2230 nM; in test [4] (setting [11]), 8.35 µM; in test [5], 0.262 µM.
